{
  "source": "patent EP0706556B1",
  "about": "“CLEANING AND DI[…]” (Henkel-Ecolab GmbH & Co. OHG, priority 1993, dated 1995)",
  "origin": "cited, not measured here",
  "data": [
    {"smiles": "C=O", "note": "[Formaldehyd]", "values": [
      {"measurement": "Konzentration, bei der Augenreizungen auftreten können", "setting": "exposed persons, certain individuals", "value": "≥ 0,4 ppm"},
      {"measurement": "Konzentration, die Lungenödeme verursacht", "setting": "inhalation, humans", "value": 50, "unit": "ppm"},
      {"measurement": "Konzentration, die Tränenfluß verursacht", "setting": "inhalation, humans", "value": "≥ 0,1 ppm"}
    ]}
  ]
}
